# Measurements as given in publication PMC3899824 (Investigational new drugs, 2013).
# Where two headings read alike, the source gives them in different places. *: point of attachment. Cbz = O=C(OCc1ccccc1)*; CH2F = FC*
# Legend:
# [1] = tested on: OCI-AM-3 (Acute Myeloid Leukemia) human tumor xenograft; settings: 55 mg/kg IP, Dailyx5, off 5d, repeat 1×
# [2] = tested on: caspases 3, 8 and 9 in MM.1S cells; assay: Western blot of caspases 3, 8 and 9; settings: 24h, 0 – 500 nM
# [3] = tested on: 8226/IM10 myeloma cells (imexon-resistant); settings: read-out: IC50, nM (Mean ± SEM); 8226/IM10, 72h, MTT
# [4] = tested on: PC-3 (Prostate Cancer) human tumor xenograft; settings: 55 mg/kg IP, Dailyx5, off 5d, repeat 1×
# OCI-AML3 leukemia cells = settings: read-out: IC50, nM (Mean ± SEM); OCI-AML3, 72h, MTT
# HCT-116 colon cells = settings: read-out: IC50, nM (Mean ± SEM); HCT-116 parental, 72h, MTT
# [5] = tested on: 8226/Dox40 myeloma cells (MDR-1 overexpressing); settings: read-out: IC50, nM (Mean ± SEM); 8226/Dox40, 72h, MTT
# PC-3 prostate cells = settings: read-out: IC50, nM (Mean ± SEM); PC-3, 72h, MTT
# [6] = tested on: MiaPaCa-2 pancreatic cells; settings: read-out: IC50, nM (Mean ± SEM); MiaPaCa-2, 72h, MTT
# BxPC-3 pancreatic cells = settings: read-out: IC50, nM (Mean ± SEM); BxPC-3, 72h, MTT
# [7] = tested on: DU-145 (Prostate Cancer) human tumor xenograft; settings: 55 mg/kg IP, Dailyx5, off 7d, repeat 2×
# [8] = tested on: human MiaPaCa-2 pancreatic cancer cell line xenograft; settings: SCID mice bearing MiaPaCa-2 flank tumors; cited from earlier work
# MCF-7 breast cells = settings: read-out: IC50, nM (Mean ± SEM); MCF-7, 72h, MTT
# Panc-1 pancreatic cells = settings: read-out: IC50, nM (Mean ± SEM); Panc-1, 72h, MTT
# [9] = tested on: HCT-116 DPC4 (−/−) colon cells
# PDGF-alpha = settings: at pharmacologically-achievable concentrations; cited from earlier work
# [10] = tested on: 8226/S multiple myeloma cells; settings: 24h, 25-100 nM
# [11] = 50–55 mg/kg IP, daily × 5 days, 5 to 7 days off, 2–3 courses
# PDGF-beta = settings: at pharmacologically-achievable concentrations; cited from earlier work
# [12] = tested on: 8226/S (Multiple Myeloma) human tumor xenograft; assay: Xenograft efficacy, 8226/S; settings: 50 mg/kg IP
# 8226/S myeloma cells = settings: read-out: IC50, nM (Mean ± SEM), 72h, MTT
# [13] = tested on: MM.1S multiple myeloma cells; settings: 24h, 25-100 nM
# tubulin = assay: Cell-free tubulin polymerization assay; format: biochemical; settings: 60m at 340 nm
# [14] = tested on: MM.1S multiple myeloma cells; assay: Apoptosis by AnnexinV/PI flow cytometry, MM.1S; format: cell-based, human
# DU-145 prostate cells = settings: read-out: IC50, nM (Mean ± SEM); DU-145, 72h, MTT
# U266 myeloma cells = settings: read-out: IC50, nM (Mean ± SEM); U266, 72h, MTT
# FLT-1 = settings: FLT-1, at pharmacologically-achievable concentrations; cited from earlier work
# [15] = tested on: H929 multiple myeloma cells; settings: H929, 24h, 25-100 nM
# MDA-MB231 breast cells = settings: read-out: IC50, nM (Mean ± SEM); MDA-MB231, 72h, MTT
# [16] = not given; remark: listed apart in the source
# [17] = tested on: MM.1S multiple myeloma cells
# MV-4-11 leukemia cells = settings: read-out: IC50, nM (Mean ± SEM); MV-4-11, 72h, MTT
# TRK-B = settings: at pharmacologically-achievable concentrations; cited from earlier work
# [18] = tested on: 8226/S multiple myeloma cells
# [19] = tested on: DPC4 (-/-) BxPC3 pancreatic cancer cell line vs DPC4 (+/+) isogenic cell line; settings: cited from earlier work
# [20] = SCID mice; for AUC: variance per Yuan in brackets
# [21] = tested on: MV-4-11 (Acute Myeloid Leukemia) human tumor xenograft; settings: 55 mg/kg IP, Dailyx5, off 5d, repeat 2×
# MM.1S myeloma cells = settings: read-out: IC50, nM (Mean ± SEM), 72h, MTT
# [22] = tested on: U266 multiple myeloma cells; settings: U266, 24h, 25-100 nM
# [23] = tested on: 8226/S multiple myeloma cells; assay: Apoptosis by AnnexinV/PI flow cytometry, 8226/S; format: cell-based, human
# [24] = tested on: H69S small cell lung cancer cells; settings: read-out: IC50, nM (Mean ± SEM), 72h, MTT
# [25] = tested on: human pancreatic cancer cells; settings: cited from earlier work
# NIH-H929 myeloma cells = settings: read-out: IC50, nM (Mean ± SEM); NIH-H929, 72h, MTT
# 8226/Dox40 cell line = settings: no reference given; cited from earlier work
# [26] = 200 nM PC-046 24h, without active caspase inhibitor
# [27] = colcemid-treated, concentration not given
# [28] = 5 μM caspase 8 inhibitor 30m before 200 nM PC-046 24h
# [29] = 5 μM pan-caspase inhibitor 30m before 200 nM PC-046 24h
compound,measurement,setting,value
"COc1ccc(-c2cnc(-c3ccncc3-c3cccc(OC)c3)o2)cc1 [PC-046, 5-(4-methoxyphenyl)pyridine-4-yl]","Mean (SD), mm^3, DPC046 (tumor AUC)",[1]; control 17752.6 (8665.6),12433.4 (4647.1) mm^3
same,Tumor AUC % Change,"[1]; vs control, p NS",−29.90%
same,caspase activation by western blot,[2],"cleavage of three major caspases, 3, 8, and 9"
same,IC50,[3],102 ± 27.5 nM
same,"Mean (SD), mm^3, DPC046 (tumor AUC)",[4]; control 10438.6 (4303.9),8238.1 (2506.2) mm^3
same,Tumor AUC % Change,"[4]; vs control, p NS",−21.10%
same,IC50,OCI-AML3 leukemia cells,177 ± 31.8 nM
same,IC50,HCT-116 colon cells,99.5 ± 15.8 nM
same,IC50,[5],188 ± 6.1 nM
same,IC50,PC-3 prostate cells,105 ± 30.2 nM
same,IC50,[6],296 ± 72.1 nM
same,IC50,BxPC-3 pancreatic cells,199 ± 48.2 nM
same,"Mean (SD), mm^3, DPC046 (tumor AUC)",[7]; control 69969.6 (22735.3),45801.8 (23344.4) mm^3
same,Tumor AUC % Change,"[7]; vs control, p 0.04886",−34.50%
same,activity against flank tumor xenografts,[8],active
same,IC50,MCF-7 breast cells,166 ± 26.3 nM
same,IC50,Panc-1 pancreatic cells,215 ± 49.4 nM
same,increased activity for the DPC4 (-/-) HCT-116 cell line compared to the wild type HCT-116 cells,[9]; ratio of IC50 values,roughly 2 fold
same,IC50,"[9]; read-out: IC50, nM (Mean ± SEM), HCT-116 DPC4 (−/−), 72h, MTT",52 ± 5.3 nM
same,kinase inhibition in vitro,PDGF-alpha,inhibit
same,cell cycle effect (DNA content),[10],significant accumulation of cells in S-phase
same,lethality,[11],no lethality
same,loss of body weight,[11],about 10%
same,kinase inhibition in vitro,PDGF-beta,inhibit
same,tumor growth inhibition in vivo (in words),[12]; 8226/S myeloma xenograft,no growth inhibition was observed
same,"Mean (SD), mm^3, DPC046 (tumor AUC)","[12]; 8226/S, Every third day, repeat 10×, control 27292.6 (13688.8)",28516.9 (9067.3) mm^3
same,Tumor AUC % Change,"[12]; 8226/S, Every third day, repeat 10×, vs control, p NS",+4.5%
same,IC50,8226/S myeloma cells,134 ± 13.8 nM
same,cell cycle effect (DNA content),[13],accumulation of cells in the G2/M-phase
same,effect on tubulin polymerization,tubulin; 5 μM,inhibits tubulin polymerization
same,AnnexinV-positive cells,[14]; [26],32.6%
same,IC50,DU-145 prostate cells,160 ± 39.4 nM
same,IC50,U266 myeloma cells,70.1 ± 16.2 nM
same,mean PC-046 concentrations in the femurs (bone marrow flushings),30 and 60 minutes after 100 mg/kg IP,approximately 0.07 μg/mL
same,femur concentrations,"30 and 60 minutes after 100 mg/kg IP, converted",195 nM
same,mean plasma concentration,30 minutes after 100 mg/kg IP,1750 ng/mL
same,mean plasma concentration,45 minutes after 100 mg/kg IP,1930 ng/mL
same,mean plasma concentration,60 minutes after 100 mg/kg IP,962 ng/mL
same,kinase inhibition in vitro,FLT-1,inhibit
same,cell cycle effect (DNA content),[15],accumulation of cells in the G2/M-phase
same,IC50,MDA-MB231 breast cells,206 ± 49.2 nM
same,lethal acute dose,"[16]; mouse, in vivo",150 mg/kg
same,time to death after administration,"[16]; mouse, in vivo, 150 mg/kg",2 to 5 days
same,acutely tolerated dose,"[16]; single dose, non-tumor bearing mice",100 mg/kg
same,"% positive histone H3 cells, mean (SEM)","[17]; 150 nM PC-046, 16h, baseline 3.14 (0.15)",17.3 (1.28) %
same,IC50,MV-4-11 leukemia cells,193 ± 10.8 nM
same,kinase inhibition in vitro,TRK-B,inhibit
same,"% positive histone H3 cells, mean (SEM)","[18]; 150 nM PC-046, 16h, baseline 3.31 (0.14)",34.70 (5.84) %
same,selectivity index previously reported,[19],1.74 x
same,Cmax,[20]; 100mg/kg IP,4010 ng/mL
same,T ½,[20]; 100mg/kg IP,5.17 h
same,Tmax,[20]; 100mg/kg IP,0.08 h
same,AUC,[20]; 100mg/kg IP,5.22(0.68) ^# hr* μg/mL
same,Clearance,[20]; 100mg/kg IV,332 mL/min/kg
same,Cmax,[20]; 100mg/kg IV,1660 ng/mL
same,T ½,[20]; 100mg/kg IV,8.40 h
same,Tmax,[20]; 100mg/kg IV,0.17 h
same,Vol. Dist.,[20]; 100mg/kg IV,240.3 L/kg
same,AUC,[20]; 100mg/kg IV,5.02 (0.29) ^# hr* μg/mL
same,F (bioavailabilty),[20]; 100mg/kg PO vs IV,0.71
same,Cmax,[20]; 100mg/kg PO,1550 ng/mL
same,T ½,[20]; 100mg/kg PO,3.17 h
same,Tmax,[20]; 100mg/kg PO,0.08 h
same,AUC,[20]; 100mg/kg PO,3.55(0.75) ^# hr* μg/mL
same,oral bioavailability,[20]; 100 mg/kg oral gavage compared to the IV route,71%
same,"Mean (SD), mm^3, DPC046 (tumor AUC)",[21]; control 18702.7 (7654.1),11309.3 (5293.3) mm^3
same,Tumor AUC % Change,"[21]; vs control, p 0.0374",−39.50%
same,IC50,MM.1S myeloma cells,162 ± 39.6 nM
same,cell cycle effect (DNA content),[22],accumulation of cells in the G2/M-phase
same,AnnexinV-positive cells,[23]; [26],30.7%
same,IC50,[24],240 ± 10.9 nM
same,cell cycle effect,[25],accumulate in G2/M phases
same,IC50,NIH-H929 myeloma cells,163 ± 13.9 nM
"CN[C@H]1CCc2cc(OC)c(OC)c(OC)c2-c2ccc(OC)c(=O)cc21 [colcemid, reference compound]","% positive histone H3 cells, mean (SEM)",[17]; [27],12.54 (0.73) %
same,"% positive histone H3 cells, mean (SEM)",[18]; [27],39.40 (1.48) %
Cbz-IETD-CH2F,AnnexinV-positive cells,[14]; [28],32.6%
same,AnnexinV-positive cells,[23]; [28],25.1%
CC(=O)O[C@H]1C(=O)[C@@]2(C)[C@H]([C@H](OC(=O)c3ccccc3)[C@]3(O)C[C@H](OC(=O)[C@H](O)[C@@H](NC(=O)c4ccccc4)c4ccccc4)C(C)=C1C3(C)C)[C@]1(OC(C)=O)CO[C@@H]1C[C@@H]2O [paclitaxel],effect on tubulin polymerization,tubulin; 10 μM,stabilized tubulin polymerization
CC[C@]1(O)C[C@H]2CN(CCc3c([nH]c4ccccc34)[C@@](C(=O)OC)(c3cc4c(cc3OC)N(C=O)[C@H]3[C@@](O)(C(=O)OC)[C@H](OC(C)=O)[C@]5(CC)C=CCN6CC[C@]43[C@@H]65)C2)C1 [vincristine],effect on tubulin polymerization,tubulin; 10 μM,a reduction in the amount of tubulin polymer formed
same,resistance conferred by ABCB1 (Pgp/MDR1),8226/Dox40 cell line,approximately 200 fold
CC(C)[C@H](NC(=O)c1ccc2ccccc2n1)C(=O)N[C@@H](CC(=O)O)C(=O)COc1c(F)cccc1F [Q-VD-OPh],AnnexinV-positive cells,[14]; [29],12.8%
same,AnnexinV-positive cells,[23]; [29],13.5%
